Measurements from patent US10562912B2 (C&C Research Laboratories, priority 2013, dated 2020).

Columns and labels:
Assay type in all cases: cell-based
STAT3 = target: T1, STAT3 (Homo sapiens, UniProt P40763); assay: STAT3 reporter gene assay (luciferase), LNCaP stable cell line (pSTAT3-TA-luc), IL-6 stimulation
T1 construct: plasmid pSTAT3-TA-luc), which contains a stably operating STAT3 promoter; endogenous in cells
Protocol: 1-1) Experiment on the Inhibition of STAT3 Activity
A human prostate cancer cell line (LNCaP stable cell line; plasmid pSTAT3-TA-luc), which contains a stably operating STAT3 promoter, was cultured in RPMI1640 medium (Cat No. 11875, Life Technologies) containing 10% fetal bovine serum (FBS) (Cat No. SH30396, Thermo Scientific) and 150 μg/mL G-418 solution (Cat No. 04 727 894 001, Roche). The reporter gene assay using LNCaP stable cell line was performed in RPMI1640 medium containing 3% DCC-FBS without G-418 solution. LNCaP stable cells were plated in two (2) white 96-well plates with 30,000 cells/50 μL in each well. The cells were cultured at 37° C., under 5% CO2 for 24 hours, and then treated with the compounds listed in Examples which were diluted in various concentrations. Subsequently, IL-6 was added to each well with a final concentration of 10 ng/mL. Upon completion of the treatment with the compounds and IL-6, the cells were cultured at 37° C., under 5% CO2 for from 24 to 48 hours. The plates were observed under microscope and drug precipitation and particular findings were investigated and recorded.
The luciferase assay and the cell viability assay were performed respectively with one of the two plates. For the luciferase assay, the liquid media in the 96-well plate was removed, and then, 20 μL of passive cell lysis buffer was added to each well. After shaking the plate for 30 minutes, luciferase activities of each well were measured in a PHERAstar™ microplate reader (BMG LABTECH) using a luciferase assay system (Cat No. E1501, Promega). For the cell viability assay, the 96-well plate was placed at room temperature for 30 minutes, added with 20 μL/well of CellTiter-Glo solution (Cat No. G7573, Promega), and shaken for 10 minutes in order to measure cytotoxicity caused by the compounds listed in Examples with a PHERAstar™ microplate reader (BMG LABTECH). Wells without 0.1% DMSO and stimulation were used as a negative control and wells with 0.1% DMSO and stimulation were used as a positive control.

LNCaP = assay: Cell growth inhibition assay, prostate cancer cell line LNCaP (medium with 10 ng/mL IL-6); details: Homo sapiens, medium supplemented with 10 ng/mL of IL-6, 10,000 cells/well
Protocol: (§1) The inhibitory effects of the compounds of the present invention against the growth of cancer cells were evaluated as shown below. The cancer cell lines including stomach cancer cell line (AGS), breast cancer cell lines (MDA-MB-231, MDA-MB-468, and BT-549), prostate cancer cell lines (LNCaP and DU-145), colon cancer cell line (HCT116), ovarian cancer cell line (SW626), liver cancer cell line (Hep3B), kidney cancer cell line (ACHN), lung cancer cell line (NCI-H23) and blood cancer cell lines (HEL92.1.7 and U266) were cultured under the protocol provided by each supplier. A medium supplemented with 10 ng/mL of IL-6 was used for LNCaP, a prostate cancer cell line, when treated with a drug. Each type of cells to be used in experiments were sub-cultured in a 96-well plate by counting the exact number of cells using Tali™ Image-based Cytometer (Life Technologies). In a 96-well plate, AGS, HCT116, and DU-145 were employed with 3,000 cells/well; NCI-H23, SW626, Hep3B, ACHN, BT-549, MDA-MB-231, HEL92.1.7, and U266 were employed with 5,000 cells/well; and LNCaP and MDA-MB-468 were employed with 10,000 cells/well. The cells were treated with the compounds listed in Examples which were diluted in various concentrations. Upon completion of the compounds treatment, AGS, HCT116, SW626, DU145, NCI-H23, Hep3B, ACHN, BT-549, LNCaP, HEL92.1.7, and U266 cells were cultured at 37° C. under 5% CO2 for from 72 to 96 hours, and MDA-MB-231 and MDA-MB-468 cells were cultured at 37° C. in air for from 72 to 96 hours. Subsequently, the cells were observed under microscope and drug precipitation and particular findings were investigated and recorded. And then, the 96-well plate was placed at room temperature for 30 minutes, added with 20 μL/well of CellTiter-Glo solution (Cat No. G7573, Promega) and shaken for 10 minutes, followed by being subjected to the measurement using PHERAstar™ microplate reader (BMG LABTECH) according to the supplier's general luminometer protocol. Wells where only culture liquid added without cell plating were used as a negative control, whereas wells where culture liquid containing 0.1% DMSO instead of the compounds listed in Examples were used as a positive control.

DU-145 = assay: Cell growth inhibition assay, prostate cancer cell line DU-145; details: Homo sapiens, DU-145 prostate cancer cell line
Protocol: as §1

T1 sequence (P40763 whole entry): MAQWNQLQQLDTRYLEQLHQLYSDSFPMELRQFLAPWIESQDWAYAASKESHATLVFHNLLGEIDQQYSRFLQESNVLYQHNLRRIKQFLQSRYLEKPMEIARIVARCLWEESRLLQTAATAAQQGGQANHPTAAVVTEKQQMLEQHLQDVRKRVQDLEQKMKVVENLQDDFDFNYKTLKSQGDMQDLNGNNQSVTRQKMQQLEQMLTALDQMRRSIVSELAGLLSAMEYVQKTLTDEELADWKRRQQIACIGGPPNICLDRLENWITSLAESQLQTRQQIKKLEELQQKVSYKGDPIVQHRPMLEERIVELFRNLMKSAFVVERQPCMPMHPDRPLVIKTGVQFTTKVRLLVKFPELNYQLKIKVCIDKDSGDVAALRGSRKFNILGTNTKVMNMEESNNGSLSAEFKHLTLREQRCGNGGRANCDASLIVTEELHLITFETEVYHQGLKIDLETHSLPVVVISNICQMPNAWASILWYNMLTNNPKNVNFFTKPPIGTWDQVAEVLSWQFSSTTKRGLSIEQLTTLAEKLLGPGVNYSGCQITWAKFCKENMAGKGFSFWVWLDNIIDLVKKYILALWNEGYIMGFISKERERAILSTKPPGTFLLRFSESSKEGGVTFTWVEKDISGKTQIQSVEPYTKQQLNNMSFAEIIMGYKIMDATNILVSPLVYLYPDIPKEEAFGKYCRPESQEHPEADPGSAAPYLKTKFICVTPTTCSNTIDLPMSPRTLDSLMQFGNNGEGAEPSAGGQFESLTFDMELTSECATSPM

IC50 (STAT3) [µM]	IC50 (LNCaP) [µM]	IC50 (DU-145) [µM]	SMILES
0.014	0.039	0.008	CC(C)(c1cc(Cl)cc(NC(=O)c2cc3cc(NS(C)(=O)=O)ccc3s2)c1)c1cc(OC2CC2)cc(OC(F)(F)F)c1 [Example 79, N-(3-chloro-5-(2-(3-cyclopropoxy-5-(trifluoromethoxy)phenyl)propan-2-yl)phenyl)-5-(methylsulfonamido)benzo[b]thiophene-2-carboxamide]
0.22	1.5	0.8	COc1cc(OC(F)(F)F)cc(C(C)(C)c2cc(Br)cc(NC(=O)c3cc4cc(NS(C)(=O)=O)ncc4[nH]3)c2)c1 [Example 99, N-(3-bromo-5-(2-(3-methoxy-5-(trifluoromethoxy)phenyl)propan-2-yl)phenyl)-5-(methylsulfonamido)-1H-pyrrolo[2,3-c]pyridine-2-carboxamide 2,2,2-trifluoroacetate]
0.042	> 10	0.33	CC(C)Oc1cc(OC(F)(F)F)cc(C(C)(C)c2cc(Cl)cc(NC(=O)c3cc4ccc(NS(C)(=O)=O)nc4[nH]3)c2)c1 [Example 100, N-(3-chloro-5-(2-(3-isopropoxy-5-(trifluoromethoxy)phenyl)propan-2-yl)phenyl)-6-(methylsulfonamido)-1H-pyrrolo[2,3-b]pyridine-2-carboxamide]
0.28	1.1	0.44	CC(C)Oc1cc(OC(F)(F)F)cc(C(C)(C)c2cc(Cl)cc(NC(=O)c3cc4cnc(NS(C)(=O)=O)cc4[nH]3)c2)c1 [Example 101, N-(3-chloro-5-(2-(3-isopropoxy-5-(trifluoromethoxy)phenyl)propan-2-yl)phenyl)-6-(methylsulfonamido)-1H-pyrrolo[3,2-c]pyridine-2-carboxamide]
0.224	0.42	0.58	CC(C)Oc1cc(OC(F)(F)F)cc(C(C)(C)c2cc(Cl)cc(NC(=O)c3cc4c(s3)CCN(NS(C)(=O)=O)C4)c2)c1 [Example 104, N-(3-chloro-5-(2-(3-isopropoxy-5-(trifluoromethoxy)phenyl)propan-2-yl)phenyl)-5-(methylsulfonamido)-4,5,6,7-tetrahydrothieno[3,2-c]pyridine-2-carboxamide]
0.005	0.002	0.001	CC(C)Oc1cc(OC(F)(F)F)cc(C(C)(C)c2cc(Cl)cc(NC(=O)c3cc4cc(NS(C)(=O)=O)c(Cl)cc4s3)c2)c1 [Example 105, 6-chloro-N-(3-chloro-5-(2-(3-isopropoxy-5-(trifluoromethoxy)phenyl)propan-2-yl)phenyl)-5-(methylsulfonamido)benzo[b]thiophene-2-carboxamide]
0.52	0.11	0.031	COc1cccc(C(C)(C)c2cc(Cl)cc(NC(=O)c3cc4cc(NS(C)(=O)=O)ccc4s3)c2)c1 [Example 106, N-(3-chloro-5-(2-(3-methoxyphenyl)propan-2-yl)phenyl)-5-(methylsulfonamido)benzo[b]thiophene-2-carboxamide]
0.02	0.061	0.014	CC#Cc1cc(OC(F)(F)F)cc(C(C)(C)c2cc(Cl)cc(NC(=O)c3cc4cc(NS(C)(=O)=O)ccc4s3)c2)c1 [Example 114, N-(3-chloro-5-(2-(3-(prop-1-yn-1-yl)-5-(trifluoromethoxy)phenyl)propan-2-yl)phenyl)-5-(methylsulfonamido)benzo[b]thiophene-2-carboxamide]
0.66	3.6	2.2	CC(C)(c1cccc(Cn2ccnc2)c1)c1cc(Br)cc(NC(=O)c2cc3cc(NS(C)(=O)=O)ccc3s2)c1 [Example 120, N-(3-(2-(3-((1H-imidazol-1-yl)methyl)phenyl)propan-2-yl)-5-bromophenyl)-5-(methylsulfonamido)benzo[b]thiophene-2-carboxamide]
4	6.5	2.1	CC(C)Oc1cc(CN2CCNCC2)cc(C(C)(C)c2cc(Br)cc(NC(=O)c3cc4cc(NS(C)(=O)=O)ccc4s3)c2)c1 [Example 124, N-(3-bromo-5-(2-(3-isopropoxy-5-(piperazin-1-ylmethyl)phenyl)propan-2-yl)phenyl)-5-(methylsulfonamido)benzo[b]thiophene-2-carboxamide]
0.89	2.1	0.46	CC(C)Oc1cc(CN2CCCC2)cc(C(C)(C)c2cc(Cl)cc(NC(=O)c3cc4cc(NS(C)(=O)=O)ccc4s3)c2)c1 [Example 125, N-(3-chloro-5-(2-(3-isopropoxy-5-(pyrrolidin-1-ylmethyl)phenyl)propan-2-yl)phenyl)-5-(methylsulfonamido)benzo[b]thiophene-2-carboxamide]
0.1	0.11	0.11	CC(C)Oc1cc(CN2CCOCC2)cc(C(C)(C)c2cc(Cl)cc(NC(=O)c3cc4cc(NS(C)(=O)=O)ccc4s3)c2)c1 [Example 126, N-(3-chloro-5-(2-(3-isopropoxy-5-(morpholinomethyl)phenyl)propan-2-yl)phenyl)-5-(methylsulfonamido)benzo[b]thiophene-2-carboxamide]
0.27	0.41	0.15	CC(C)Oc1cc(CN2CCN(S(C)(=O)=O)CC2)cc(C(C)(C)c2cc(Cl)cc(NC(=O)c3cc4cc(NS(C)(=O)=O)ccc4s3)c2)c1 [Example 128, N-(3-chloro-5-(2-(3-isopropoxy-5-((4-(methylsulfonyl)piperazin-1-yl)methyl)phenyl)propan-2-yl)phenyl)-5-(methylsulfonamido)benzo[b]thiophene-2-carboxamide]
0.085	0.26	0.1	CC(C)Oc1cc(CN2CCN(S(=O)(=O)N(C)C)CC2)cc(C(C)(C)c2cc(Cl)cc(NC(=O)c3cc4cc(NS(C)(=O)=O)ccc4s3)c2)c1 [Example 131, N-(3-chloro-5-(2-(3-((4-(N,N-dimethylsulfamoyl)piperazin-1-yl)methyl)-5-isopropoxyphenyl)propan-2-yl)phenyl)-5-(methylsulfonamido)benzo[b]thiophene-2-carboxamide]
0.35	0.97	0.41	CC(C)Oc1cc(CN2CCS(=O)(=O)CC2)cc(C(C)(C)c2cc(Cl)cc(NC(=O)c3cc4cc(NS(C)(=O)=O)ccc4s3)c2)c1 [Example 132, N-(3-chloro-5-(2-(3-((1,1-dioxidothiomorpholino)methyl)-5-isopropoxyphenyl)propan-2-yl)phenyl)-5-(methylsulfonamido)benzo[b]thiophene-2-carboxamide]
0.15	0.7	0.22	CC(C)Oc1cc(CN2CCN(C(=O)N(C)C)CC2)cc(C(C)(C)c2cc(Cl)cc(NC(=O)c3cc4cc(NS(C)(=O)=O)ccc4s3)c2)c1 [Example 133, 4-(3-(2-(3-chloro-5-(5-(methylsulfonamido)benzo[b]thiophene-2-carboxamido)phenyl)propan-2-yl)-5-isopropoxybenzyl)-N,N-dimethylpiperazine-1-carboxamide]
